Experimental findings from ChEMBL document CHEMBL3739404, “Arylsulfonamide derivatives of (aryloxy)ethylpiperidines as selective 5-HT7receptor antagonists and their psychotropic properties” (Medchemcomm, 2015) are described below.

pKi: −log10 of the molar value. The source made the active and inactive calls. The rule behind the calls is not given here. Bounds are passed on as bounds.

One series has as its target D(2) dopamine receptor (Homo sapiens, UniProt P14416). The series is described as follows: Displacement of [3H]-Raclopride from human dopamine D2L receptor expressed in HEK293 cells after 1 hr by microplate reader based assay. Format: cell-based.
For series [1], the system named is Mus musculus. The series is described as follows: Toxicity in ip dosed albino Swiss mouse assessed as effect on spontaneous locomotor activity dosed 60 mins before test measured for 1 min 15 secs by M3 multichannel activity test. Format: organism-based. The settings on record: in vivo.
Series [2] has as its target T1, Adrenergic receptor alpha-1 (Rattus norvegicus, UniProt P15823+P23944+P43140).
T1 sequence (P15823 whole entry): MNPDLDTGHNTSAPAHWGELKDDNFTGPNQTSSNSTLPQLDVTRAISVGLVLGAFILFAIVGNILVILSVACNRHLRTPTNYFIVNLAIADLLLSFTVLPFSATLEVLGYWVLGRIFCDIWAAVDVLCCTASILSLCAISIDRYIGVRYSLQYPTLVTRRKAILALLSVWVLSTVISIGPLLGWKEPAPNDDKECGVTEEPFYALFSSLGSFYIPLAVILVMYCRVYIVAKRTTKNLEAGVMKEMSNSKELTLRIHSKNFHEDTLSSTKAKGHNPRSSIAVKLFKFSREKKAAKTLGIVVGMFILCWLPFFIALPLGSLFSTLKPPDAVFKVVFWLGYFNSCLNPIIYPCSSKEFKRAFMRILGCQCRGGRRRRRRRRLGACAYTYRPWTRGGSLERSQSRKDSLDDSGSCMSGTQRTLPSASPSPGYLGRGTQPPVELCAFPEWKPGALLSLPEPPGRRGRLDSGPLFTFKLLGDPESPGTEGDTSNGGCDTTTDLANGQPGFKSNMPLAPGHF
T1 sequence (P23944 whole entry): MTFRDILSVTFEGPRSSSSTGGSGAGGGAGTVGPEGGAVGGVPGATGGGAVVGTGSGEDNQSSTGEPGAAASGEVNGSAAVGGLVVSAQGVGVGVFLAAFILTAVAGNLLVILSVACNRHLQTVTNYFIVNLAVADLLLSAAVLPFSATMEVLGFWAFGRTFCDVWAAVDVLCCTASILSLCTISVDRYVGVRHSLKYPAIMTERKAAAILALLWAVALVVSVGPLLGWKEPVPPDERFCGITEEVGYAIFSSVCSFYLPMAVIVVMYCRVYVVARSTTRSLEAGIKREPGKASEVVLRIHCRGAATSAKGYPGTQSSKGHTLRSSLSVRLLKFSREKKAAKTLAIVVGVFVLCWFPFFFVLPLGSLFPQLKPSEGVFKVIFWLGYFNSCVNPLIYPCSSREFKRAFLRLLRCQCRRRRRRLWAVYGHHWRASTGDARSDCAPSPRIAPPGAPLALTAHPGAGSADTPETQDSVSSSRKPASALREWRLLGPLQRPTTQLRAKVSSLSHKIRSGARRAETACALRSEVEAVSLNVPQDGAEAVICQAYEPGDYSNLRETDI
T1 sequence (P43140 whole entry): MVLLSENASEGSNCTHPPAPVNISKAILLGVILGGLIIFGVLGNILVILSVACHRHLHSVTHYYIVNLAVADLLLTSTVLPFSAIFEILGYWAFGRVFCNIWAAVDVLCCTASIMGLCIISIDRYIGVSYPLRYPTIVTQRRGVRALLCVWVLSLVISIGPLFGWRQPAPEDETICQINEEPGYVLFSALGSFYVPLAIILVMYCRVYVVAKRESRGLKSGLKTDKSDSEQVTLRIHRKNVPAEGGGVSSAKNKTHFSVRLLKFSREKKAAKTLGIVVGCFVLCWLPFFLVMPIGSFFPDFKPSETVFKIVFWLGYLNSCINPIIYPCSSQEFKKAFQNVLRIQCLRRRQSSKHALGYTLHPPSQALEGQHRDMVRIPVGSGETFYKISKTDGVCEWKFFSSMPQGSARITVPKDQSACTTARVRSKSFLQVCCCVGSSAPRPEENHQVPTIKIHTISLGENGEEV
The series can be described thus: Displacement of [3H]-Prazosin from alpha-1 adrenergic receptor in rat cerebral cortex after 1 hr by microplate reader based assay. Format: tissue-based.

Series [3] addresses 5-hydroxytryptamine receptor 6 (Homo sapiens, UniProt P50406). The series can be described thus: Displacement of [3H]-LSD from human serotonin 5-HT6 receptor expressed in HEK293 cells after 1 hr by microplate reader based assay. Format: cell-based.
Series [4] concerns the target T2, 5-hydroxytryptamine receptor 7 (Homo sapiens, UniProt P34969). The series is described as follows: Antagonist activity at human serotonin 5-HT7B receptor expressed in CHO cells assessed as inhibition of serotonin-induced cAMP production after 30 mins by HTRF assay. Format: functional, cell-based.
Series [5] deals with T3, Muscarinic acetylcholine receptor M1 (Homo sapiens) (UniProt P11229).
T3 sequence (whole entry): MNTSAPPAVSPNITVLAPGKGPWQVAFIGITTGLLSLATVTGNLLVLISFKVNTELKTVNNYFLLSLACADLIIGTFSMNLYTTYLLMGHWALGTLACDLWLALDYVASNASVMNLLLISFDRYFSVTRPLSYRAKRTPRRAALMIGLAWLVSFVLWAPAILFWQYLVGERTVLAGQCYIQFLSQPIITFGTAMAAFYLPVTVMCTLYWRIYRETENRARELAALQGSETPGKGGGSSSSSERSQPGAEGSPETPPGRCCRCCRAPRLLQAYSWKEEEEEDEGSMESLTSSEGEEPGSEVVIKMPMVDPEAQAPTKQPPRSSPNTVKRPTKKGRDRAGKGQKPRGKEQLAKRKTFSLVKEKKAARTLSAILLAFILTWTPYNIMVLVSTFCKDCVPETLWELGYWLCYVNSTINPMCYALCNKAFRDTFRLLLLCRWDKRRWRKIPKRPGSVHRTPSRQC
The series can be described thus: Binding affinity to muscarinic acetylcholine receptor M1 (unknown origin) at 1 uM.

The target in series [6] is T2, 5-hydroxytryptamine receptor 7. The series can be described thus: Antagonist activity at human 5-HT7B receptor expressed in HEK293 cells assessed as inhibition of 5-carboxyamidotryptamine-induced cAMP production after 30 mins by TR-FRET assay. Format: functional, cell-based.
The target in series [7] is Histamine H1 receptor (Homo sapiens) (UniProt P35367). The series is described as follows: Binding affinity to histamine H1 receptor (unknown origin) at 1 uM.
Histamine H1 receptor (Homo sapiens), sequence (P35367 whole entry): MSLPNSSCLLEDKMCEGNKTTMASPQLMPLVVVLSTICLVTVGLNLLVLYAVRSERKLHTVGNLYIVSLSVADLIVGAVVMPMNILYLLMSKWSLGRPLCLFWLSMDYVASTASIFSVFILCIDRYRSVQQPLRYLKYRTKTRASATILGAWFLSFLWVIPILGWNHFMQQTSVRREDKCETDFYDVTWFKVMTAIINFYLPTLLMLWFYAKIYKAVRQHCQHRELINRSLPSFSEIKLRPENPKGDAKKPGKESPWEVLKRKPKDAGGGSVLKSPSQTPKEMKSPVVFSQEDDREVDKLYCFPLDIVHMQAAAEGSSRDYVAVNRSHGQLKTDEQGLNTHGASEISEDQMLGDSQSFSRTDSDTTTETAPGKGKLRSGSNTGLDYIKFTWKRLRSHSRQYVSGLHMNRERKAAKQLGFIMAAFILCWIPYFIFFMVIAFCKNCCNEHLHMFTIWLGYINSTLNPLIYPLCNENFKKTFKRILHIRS
The test system of series [8] is Mus musculus. The series can be described thus: Toxicity in albino Swiss mouse assessed as effect on spontaneous locomotor activity at 5 mg/kg, ip dosed 60 mins before test measured for 2 to 6 mins by M3 multichannel activity test. Format: organism-based. The settings on record: in vivo.
In another series the test system is Rattus norvegicus. The series can be described thus: Pro-cognitive effect in Sprague-Dawley rat assessed as reduction in PCP-induced memory deficits administered ip 1 hr 15 mins before familiarization phase by novel object recognition test. Format: functional, organism-based.
Series [9] deals with Beta-1 adrenergic receptor (Homo sapiens) (UniProt P08588). The series is described as follows: Binding affinity to beta-1 adrenergic receptor (unknown origin) at 1 uM.
Beta-1 adrenergic receptor (Homo sapiens), sequence (P08588 whole entry, looked up): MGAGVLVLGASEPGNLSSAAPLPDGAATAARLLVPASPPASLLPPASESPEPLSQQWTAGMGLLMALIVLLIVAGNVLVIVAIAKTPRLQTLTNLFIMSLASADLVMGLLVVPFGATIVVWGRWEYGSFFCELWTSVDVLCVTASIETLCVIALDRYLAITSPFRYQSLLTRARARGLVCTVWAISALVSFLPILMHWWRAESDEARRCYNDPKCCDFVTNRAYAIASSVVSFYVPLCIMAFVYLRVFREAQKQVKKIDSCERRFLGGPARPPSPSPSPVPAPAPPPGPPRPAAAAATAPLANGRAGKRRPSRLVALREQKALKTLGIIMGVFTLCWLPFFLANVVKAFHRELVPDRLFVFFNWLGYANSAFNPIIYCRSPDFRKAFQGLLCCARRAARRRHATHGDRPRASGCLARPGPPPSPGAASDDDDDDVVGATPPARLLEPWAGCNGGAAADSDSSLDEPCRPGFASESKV
The test system of series [10] is Mus musculus. The series is described as follows: Anxiolytic-like activity in albino Swiss mouse assessed as increase in number of punished crossings at 1 mg/kg, ip dosed 30 mins before test by four plate test. Format: functional, organism-based.
In series [11] the test system is Mus musculus. The series can be described thus: Toxicity in albino Swiss mouse assessed as effect on spontaneous locomotor activity at 10 mg/kg, ip dosed 30 mins before test measured for 2 to 6 mins by M3 multichannel activity test. Format: organism-based. As to conditions: in vivo.
The subject of series [12] is Mus musculus. The series is described as follows: Toxicity in albino Swiss mouse assessed as effect on spontaneous locomotor activity at 1 mg/kg, ip dosed 30 mins before test measured for 1 min 15 secs by M3 multichannel activity test. The settings on record: in vivo. Format: organism-based.
For series [13], the system named is Mus musculus. The series can be described thus: Antidepressant-like activity in albino Swiss mouse assessed as reduction in immobility time at 10 mg/kg, ip dosed 30 mins before test by forced swim test. The arrangement: scale not given: the % may be the effect or the level left. Format: functional.
Series [14] deals with T4, 5-hydroxytryptamine receptor 1A (Homo sapiens, UniProt P08908).
T4 sequence (P08908 whole entry): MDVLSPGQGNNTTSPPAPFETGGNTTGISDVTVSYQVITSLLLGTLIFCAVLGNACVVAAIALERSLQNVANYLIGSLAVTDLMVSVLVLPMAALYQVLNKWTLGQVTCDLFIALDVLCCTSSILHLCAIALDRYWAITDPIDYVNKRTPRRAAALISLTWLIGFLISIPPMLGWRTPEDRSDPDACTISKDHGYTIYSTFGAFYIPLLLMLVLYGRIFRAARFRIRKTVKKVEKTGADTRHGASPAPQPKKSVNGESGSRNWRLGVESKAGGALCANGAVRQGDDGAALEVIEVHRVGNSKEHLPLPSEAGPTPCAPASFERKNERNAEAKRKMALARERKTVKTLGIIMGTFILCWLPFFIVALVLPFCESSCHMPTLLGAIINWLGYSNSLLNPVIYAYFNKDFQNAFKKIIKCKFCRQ
The series is described as follows: Displacement of [3H]-8-OH-DPAT from human serotonin 5-HT1A receptor expressed in HEK293 cells after 1 hr by microplate reader based assay. Format: cell-based.

The subject of series [15] is Mus musculus. The series is described as follows: Toxicity in albino Swiss mouse assessed as effect on spontaneous locomotor activity at 1.25 mg/kg, ip dosed 60 mins before test measured for 1 min 15 secs by M3 multichannel activity test. Format: organism-based. As to conditions: in vivo.
The target of series [16] is T2, 5-hydroxytryptamine receptor 7. The series is described as follows: Displacement of [3H]-5-carboxyamidotryptamine from human serotonin 5-HT7B receptor expressed in HEK293 cells after 1 hr by microplate reader based assay. Format: cell-based.
In series [17] the test system is Mus musculus. The series is described as follows: Anxiolytic-like activity in albino Swiss mouse assessed as increase in number of punished crossings at 1.25 mg/kg, ip dosed 60 mins before test by four plate test. Format: functional.
Series [18] deals with Mus musculus. The series can be described thus: Toxicity in albino Swiss mouse assessed as effect on spontaneous locomotor activity at 2.5 mg/kg, ip dosed 60 mins before test measured for 2 to 6 mins by M3 multichannel activity test. Format: organism-based. The settings on record: in vivo.

T2 sequence (P34969 whole entry): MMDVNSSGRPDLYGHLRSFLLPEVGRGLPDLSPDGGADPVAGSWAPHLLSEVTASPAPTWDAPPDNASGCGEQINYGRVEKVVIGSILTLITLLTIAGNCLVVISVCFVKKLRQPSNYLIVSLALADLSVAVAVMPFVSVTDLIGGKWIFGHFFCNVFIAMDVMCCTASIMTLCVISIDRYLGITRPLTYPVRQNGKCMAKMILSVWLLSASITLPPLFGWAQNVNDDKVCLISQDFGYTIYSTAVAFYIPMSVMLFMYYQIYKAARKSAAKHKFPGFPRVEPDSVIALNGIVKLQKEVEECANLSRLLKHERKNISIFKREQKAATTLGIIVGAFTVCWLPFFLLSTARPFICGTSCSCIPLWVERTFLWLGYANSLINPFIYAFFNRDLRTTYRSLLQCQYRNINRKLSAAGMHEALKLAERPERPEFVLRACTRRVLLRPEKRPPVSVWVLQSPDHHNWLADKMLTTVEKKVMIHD
5-hydroxytryptamine receptor 6, sequence (P50406 whole entry): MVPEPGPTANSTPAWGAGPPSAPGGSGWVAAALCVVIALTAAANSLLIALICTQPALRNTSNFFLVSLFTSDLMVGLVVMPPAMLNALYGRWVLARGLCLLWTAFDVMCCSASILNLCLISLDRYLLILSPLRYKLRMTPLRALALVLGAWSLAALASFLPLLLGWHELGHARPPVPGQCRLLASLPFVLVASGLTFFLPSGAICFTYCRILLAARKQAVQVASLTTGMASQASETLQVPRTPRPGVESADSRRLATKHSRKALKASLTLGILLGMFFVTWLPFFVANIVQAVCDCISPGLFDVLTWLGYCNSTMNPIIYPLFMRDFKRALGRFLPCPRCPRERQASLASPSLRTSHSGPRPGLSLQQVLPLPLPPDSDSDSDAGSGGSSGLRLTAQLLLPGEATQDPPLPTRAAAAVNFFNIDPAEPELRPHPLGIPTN
D(2) dopamine receptor, sequence (P14416 whole entry): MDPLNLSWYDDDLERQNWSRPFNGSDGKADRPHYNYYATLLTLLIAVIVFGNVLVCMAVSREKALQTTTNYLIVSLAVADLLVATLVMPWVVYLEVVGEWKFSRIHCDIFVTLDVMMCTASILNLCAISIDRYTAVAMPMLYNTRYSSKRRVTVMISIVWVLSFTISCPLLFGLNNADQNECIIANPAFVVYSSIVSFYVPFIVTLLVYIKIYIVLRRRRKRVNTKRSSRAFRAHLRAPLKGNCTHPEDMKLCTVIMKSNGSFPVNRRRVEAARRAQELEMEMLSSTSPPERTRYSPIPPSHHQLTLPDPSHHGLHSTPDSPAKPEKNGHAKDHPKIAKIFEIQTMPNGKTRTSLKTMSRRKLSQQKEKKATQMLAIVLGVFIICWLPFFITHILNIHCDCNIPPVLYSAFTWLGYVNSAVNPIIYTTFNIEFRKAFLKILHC

Consider `CC(C)c1ccccc1OCCN1CCC(NS(=O)(=O)c2ccccc2F)CC1`, for which the negative logarithm of the Ki (pKi) at D(2) dopamine receptor is 7.29; in series [3] it was 6.62. Further, the Activity result in the series with Mus musculus [1] was “Non-toxic”; in series [5], below 10%; in [7], below 74%; in the series on Mus musculus [8], “Non-toxic”; in the series on Rattus norvegicus it was “Dose-dependent effect”; in [9] it was below 10%. Also, the Ki in series [2] was determined as 629 nM. For the same compound, the Kb in [4] turned out to be 1 nM; in series [6], 12 nM.

With `CC1CCN(CC[C@H]2CCCN2S(=O)(=O)c2cccc(O)c2)CC1`, the outcome in the series with Mus musculus [10] was Active. In addition, the results for the Activity entry in the series with Mus musculus [11], with Mus musculus [12] and in the series with Mus musculus [13] were “Non-toxic”, “Non-toxic” and 33%, respectively.

Turning to `CC(C)c1ccccc1OCCN1CCC(NS(=O)(=O)c2cccc(F)c2)CC1`, the negative logarithm of the Ki (pKi) at D(2) dopamine receptor is 6.99; in series [3] it was 6.33; in series [14], 6.45; in series [16], 8.05. In addition, the Activity in series [5] was below 10%; in series [7] it was below 74%; in the series on Mus musculus [15], “Non-toxic”; in the series with Mus musculus [17] it was 75%; in the series with Rattus norvegicus, “Dose-dependent effect”; in the series with Mus musculus [18], “Non-toxic”. In addition, the Activity in [9] is below 10%. In series [6], the Kb amounted to 26 nM.
